Results on 86 compounds are retold here after a melting point compilation (Tetko et al.; mined from patent text by program, amines drawn as free bases though some values may be those of a salt).

The melting point is the temperature of the solid-liquid transition.

With `CCN(CC)C(=O)c1c2nc3c(C(=O)N(CC)CC)c(N)c(O)c(C)c3oc-2c(C)c(=O)c1N`, the melting point was 262 to 265 °C.

`COC(=O)c1ccc(COc2ccc3cc(-c4ccc(-c5ccccc5)n4Cc4ccc(C(F)(F)F)cc4)ccc3c2)c(C(=O)OC)c1`: the melting point fell in the range of 172 to 174 °C.

Regarding `C=Cc1ccc(CCOC(=O)CC(C)NC(N)=O)cc1` (stereo unspecified), the melting point was 117 to 119 °C.

`Cc1cc2occc2c(N2CCN(CC[C@H]3CC[C@H](NC(=O)CC4CCOCC4)CC3)CC2)n1`: the melting point turned out to be 212 °C.

In the case of `CCOC(=O)c1ncn(-c2nc(C)cs2)c1N`, the melting point fell in the range of 152 to 155 °C.

On to `O=C(O)Cn1c(=O)c(=O)[nH]c2cc(C(F)(F)F)c(-n3ccc(CNCc4ccccc4)c3)cc21`, for which the melting point was > 300 °C.

As for `CCCCCCCCCCCCCCCCCCS(=O)c1cc2ccccc2cc1O` (stereo unspecified), the melting point is 107 to 108 °C.

For the compound `CC(C)C1NC(=O)[C@H](CS)NC1=O` (stereo partly specified), the melting point was > 275 °C.

For the compound `CC(=O)N1CCc2cc(C3=NNC(=O)CC3C)ccc21` (stereo unspecified), the melting point lay within 258 to 261 °C.

Consider `CC1=C(N2CC2)C(=O)c2c([nH]c(C)c2C)C1=O`, for which the melting point fell in the range of 251 to 253 °C.

Consider `O=c1c2cc(Oc3ccc(Cl)cc3)ccc2cnn1Cc1cccnc1`, for which the melting point is 150 to 152 °C.

On to `O=C(NOCCO)c1cc(Br)c(F)c(F)c1Nc1ccc(I)cc1F`, for which the melting point fell in the range of 189 to 190 °C.

`CCCc1c(COCCOc2ccc(-c3nnn[nH]3)cc2)ccc(C(C)=O)c1O` displayed a melting point of 170 to 172 °C.

Compound `CC(C)C[C@H](NC(=O)[C@H](Cc1ccccc1)NP(=O)(OCc1ccccc1)OCc1ccccc1)C(=O)O` showed a melting point of 90 to 92 °C.

In turn, `Cc1cc(C(=O)C(C)N2CCC(O)(c3ccccc3)CC2)ccc1OCc1ccccc1` (stereo unspecified) showed a melting point of 98 to 99 °C.

Compound `C/C(=C\c1ccc(C(=O)O)cc1)c1ccc2c(c1)C(C)(C)CCS2(=O)=O` yielded a melting point of 245 to 247 °C.

In turn, `C[Si](C)(C)OC(C(N)=O)(C(N)=O)c1ccc(Cl)c(Cl)c1` yielded a melting point of 156 °C.

The compound `COc1ccc(-c2cccs2)cc1/C=C/C(=O)c1ccc(C(=O)O)cc1` came in with a melting point of 195 to 196 °C.

As for `CCCc1c(OC)c(OC)cc2c1C(=O)N(CSc1nnnn1-c1ccccc1)S2(=O)=O`, the melting point was 145 to 146 °C.

The compound `CCCCCCCCCCCCCCCCN1CCN(c2ccc(C=CC(=O)O)cc2)CC1` had a melting point of 251 to 253 °C.

`CCOC(=O)Cc1c(-c2ccccc2)[nH]c2ccccc12` gave a melting point of 61 to 62 °C.

The compound `Cc1ccc(S(=O)(=O)Nc2ccc(C3SC(=O)NC3=O)cc2)cc1` (stereo unspecified) came in with a melting point of 215 to 218 °C.

For `CC(c1ccccc1)c1ccc(-c2cnn3c(O)ncnc23)cc1` (stereo unspecified), the melting point lay within 291 to 293 °C.

In turn, `CCOc1ccccc1C(=N)N` displayed a melting point of 78 to 84 °C.

`CN1OC(COc2ccccc2)CC1(Cn1ccnc1)c1ccc2ccccc2c1` (stereo unspecified): the melting point is 176 to 178 °C.

Compound `N#Cc1[nH]c2ccccc2c1-c1ccccc1` had a melting point of 137 to 142 °C.

In the case of `Cc1oc2ccccc2c1C(=O)N(Cc1ccccc1)Cc1ccc2c(Br)c(O)ccc2c1`, the melting point is 184 to 185 °C.

In turn, `COc1ccc2c(c1OC)CCN(CCc1ccc([N+](=O)[O-])cc1)C2` gave a melting point of 97 °C.

`Cc1ccc(S(=O)(=O)N(C)c2ccc(Cl)cc2C(=O)O)cc1` gave a melting point of 175 to 177 °C.

`O=[N+]([O-])c1ccccc1C(O)c1cc2c(Oc3ccc(Cl)cc3)cncc2s1` (stereo unspecified) returned a melting point of 85 to 90 °C.

As for `Fc1cc(F)c(-c2c(Cl)nc3c(Cl)cnn3c2Cl)c(F)c1`, the melting point is 128 °C.

In the case of `C[C@H](NC(c1ccccc1)(c1ccccc1)c1ccccc1)C(=O)O`, the melting point lay in the range of 154 to 155 °C.

The compound `O=C(CN1C(=O)C(NC(=O)n2ccnc2)N=C(c2ccccc2F)c2ccccc21)N1CC2CCC(CC2)C1` (racemic) gave a melting point of 235 to 237 °C.

`CN(C)C(=N[N+](=O)[O-])NCc1ccc(Cl)nc1` gave a melting point of 160 to 162 °C.

`COc1ccc(C=C(c2ccc(OC)cc2)c2ccc(OC)cc2)cc1`: the melting point lay within 100 to 101 °C.

With `CCC(c1ccccc1)(c1ccccc1)c1ccnc(C(N)=O)c1`, the melting point lay within 144 to 147 °C.

Regarding `O=[N+]([O-])c1ccc2c(c1)COC(c1ccccc1F)O2` (stereo unspecified), the melting point fell in the range of 137 to 138 °C.

For the compound `COc1ccc(C2Sc3cc(Cl)c(Cl)cc3N(CCN(C)C)C(=O)C2O)cc1` (stereo unspecified), the melting point is 178 to 180 °C.

In the case of `Oc1ccccc1CNCCCCCCNCc1ccccc1O`, the melting point was 72 to 73 °C.

`O=C(NCCO)c1cccc(-c2cccc3cc(OCc4cccc(C(F)(F)F)c4)nn23)c1` registered a melting point of 118 to 119 °C.

In the case of `Cc1oc(C=Cc2cccc(Cl)c2)nc1CCl`, the melting point is 86 to 87 °C.

Turning to `CC(C)CNCc1ccc(S(=O)(=O)c2ccc(S(N)(=O)=O)s2)cc1`, the melting point lay in the range of 198 to 200 °C.

`C=C(C)c1cn(C2OC(CO)C(O)C2O)c(=O)[nH]c1=O` (stereo unspecified): the melting point lay within 212 to 215 °C.

With `Brc1ccc(OC2CCN(CCc3c[nH]c4ccccc34)CC2)cc1`, the melting point lay in the range of 132 to 134 °C.

For `CC(O)c1cccc(NC(=O)NCC(=O)N(c2ccccc2)C(C)C(=O)N2CCCc3ccccc32)c1` (mixture of isomers), the melting point came out at 170 °C.

For the compound `CCCCNC(=O)Nc1ccc(OC(=O)NCCCC)cc1C(=O)NCC1CCN(C(c2ccccc2)c2ccccc2)CC1`, the melting point was in the range of 197 to 199 °C.

Compound `COc1ccc(-n2c(=O)c(C(=O)Cl)nc3c(Cl)cccc32)cc1` returned a melting point of 131 to 134 °C.

In turn, `N#Cn1nc(-c2ccccc2)c(=O)cc1Cl` had a melting point of 117 to 119 °C.

For the compound `NC(=S)N(O)[C@H]1C[C@@H](c2ccc(F)cc2)C1`, the melting point lay within 156 to 158 °C.

As to `Cc1cc(-c2ncn3c(C(F)(F)F)cc(-c4ccc(Cl)cc4)nc23)ccn1`, the melting point is 232 °C.

On to `CC(C)c1nc2ccn(Cc3ccccc3)c(=O)c2n1Cc1cccc(-c2ccc(C(=N)N)cc2)c1`, for which the melting point is > 300 °C.

`CCc1[nH]c(=O)[nH]c1C(=O)c1ccc(C#N)cc1`: the melting point was in the range of 269 to 271 °C.

Regarding `Cc1nn(C)cc1C(=O)Nc1cc(Oc2ccc3nc(NC(=O)C4CC4)cn3n2)ccc1F`, the melting point was 205 °C.

In the case of `Cc1c(Cc2ccccc2)c2c(c(C)c1NC(=O)CC(C)(C)C)C(c1ccc(C(C)C)cc1)CO2` (stereo unspecified), the melting point is 153 to 154 °C.

Turning to `CCCn1c(=O)c2[nH]c(C3(N)CCCCC3)nc2n(CCC)c1=O`, the melting point was in the range of 172 to 173 °C.

As to `O=C(O)Cc1[nH]nc2c1CCCC2`, the melting point was in the range of 155 to 156 °C.

As for `CCCCc1oc2ccccc2c1C(O)c1ccc(O)cc1` (stereo unspecified), the melting point lay within 94 to 96 °C.

`CC(C)(C)c1ccc(Oc2cccc(C(=O)NCCN(O)C(N)=O)c2)cc1`: the melting point lay within 100 to 102 °C.

Compound `CCNC(=O)Nc1ccccc1` displayed a melting point of 99 to 100 °C.

The compound `FC(F)(F)c1cccc(CSc2nnc(-c3ccc4ncc(-c5ccccn5)n4c3)o2)c1` gave a melting point of 181 to 182 °C.

Take `CC1CCc2c(N3CCCC3)c(F)cc3c(=O)c(C(=O)O)cn1c23` (stereo unspecified): the melting point is 243 to 245 °C.

For the compound `CCOP(=O)(CCN1CCNc2c1c(=O)c2=O)OCC`, the melting point is 115 to 116 °C.

With `CN(C)Cc1ccccc1C1(c2ccc(Cl)cc2)OC(=O)c2ccccc21` (stereo unspecified), the melting point lay within 138 to 140 °C.

Compound `CON=C(C(C)=NN=Cc1ccccc1C(=NOC)C(=O)OC)c1ccc(Cl)cc1` showed a melting point of 104 to 105 °C.

Compound `CCc1ccc(C(=O)c2cccc(F)c2)c(O)c1` returned a melting point of 0 to 20 °C.

Turning to `CC(C)(C)c1csc(-c2cc3cc(Cc4nc(-c5ccccc5)c(CC(=O)O)s4)ccc3o2)n1`, the melting point was 174 to 180 °C.

Turning to `CC(=O)c1cc(C)cc(C)c1NC(=O)c1sccc1S(=O)(=O)Nc1onc(C)c1C`, the melting point was in the range of 158 to 160 °C.

In the case of `NCCNc1ccc2ncc(Br)n2n1`, the melting point lay in the range of 158 to 159 °C.

Turning to `CNS(=O)(=O)c1cn(C)c2cc(F)ccc2c1=O`, the melting point was in the range of 255 to 257 °C.

`Cc1c(-c2ccccc2)oc2c(C(=O)N(C)CCCl)cccc2c1=O` returned a melting point of 126 to 128 °C.

`Cn1cc(-c2ccc(Cl)cc2Cl)c(=O)cc1C(F)(F)F` came in with a melting point of 205 to 206 °C.

`CC(O)c1cnc2c(-c3cc(-c4ccccc4)cs3)cnn2c1O` (stereo unspecified) gave a melting point of 262 to 285 °C.

In turn, `CCCCCCCCCCCCCCCCCNC(=O)O[C@@H]1CCCO[C@H]1COCc1ccccc1` (relative stereo) registered a melting point of 61 to 63 °C.

For `CCOC(=O)c1ccc(-c2cnc3c(c2)N(Cc2cc(F)ccc2F)C(=O)CN3)cc1`, the melting point is 201 to 203 °C.

`COC(=O)c1ccc(-c2ccc(C(CC3CCOCC3)c3ccc(S(=O)(=O)C4CC4)cc3)[nH]2)nc1` (stereo unspecified) showed a melting point of 150 to 152 °C.

For the compound `COc1ccc2c(Cc3ccc(OC4CCCC4N4CCCCC4)cc3)c(-c3ccc(OCCN4CCCC4)cc3)sc2c1` (stereo unspecified), the melting point lay in the range of 61 to 64 °C.

Compound `NS(=O)(=O)c1cccc(-c2cn(-c3nc(-c4cccc(Cl)c4)cc(C(F)(F)F)n3)cn2)c1` had a melting point of 204 °C.

On to `C#CCNc1cc(C(=O)OCC)cc(S(N)(=O)=O)c1Oc1ccccc1`, for which the melting point fell in the range of 189 to 190 °C.

As for `CCCc1nc2cc(C(=O)c3ccccc3)ccc2n1Cc1ccc(Cl)c(Cl)c1`, the melting point lay in the range of 168 to 169 °C.

Turning to `Cc1sc2c(c1C(=O)CCCl)NC(=O)CCC2`, the melting point was 86 to 87 °C.

For `NC(=O)c1nn(-c2ccc(S(N)(=O)=O)cc2)c2cc(-c3ccc(F)cc3)ccc12`, the melting point was in the range of 314 to 315 °C.

For the compound `O=c1oc2ccccc2c2ccc(O)c(O)c12`, the melting point was 185 to 187 °C.

Regarding `NC(=O)CCCN(Cc1ccccc1)Cc1ccccc1`, the melting point lay in the range of 76 to 77 °C.

In the case of `CCCCCCCCCC(=O)Oc1ccc(N)cc1OC(=O)CCCCCCCCC`, the melting point is 44 to 46 °C.

Compound `OC1CSC(Oc2cccc(-c3cnccn3)c2)C(O)C1O` (stereo unspecified) had a melting point of 206 to 209 °C.

As for `COc1ccc(-c2c(C(C)=O)c(CSc3nccn3C)nc3cc(OC)c(OC)cc23)cc1OC`, the melting point was in the range of 175 to 176 °C.
